# Results taken from US20090148850A1, “Methods for identifying modulators of P2RY14” (priority 2007, published 2009).
# Tests used:
# P2RY14 [1] = biological target: T1, P2RY14 (Homo sapiens, UniProt Q15391); parameters: host or cells: yeast and HEK-293 cells (Chambers et al., J. Biol. Chem. 275: 10767-10771 (2000)); details: yeast and mammalian cells, Chambers et al. 2000; cited from earlier work
# T1 sequence (Q15391 1-338): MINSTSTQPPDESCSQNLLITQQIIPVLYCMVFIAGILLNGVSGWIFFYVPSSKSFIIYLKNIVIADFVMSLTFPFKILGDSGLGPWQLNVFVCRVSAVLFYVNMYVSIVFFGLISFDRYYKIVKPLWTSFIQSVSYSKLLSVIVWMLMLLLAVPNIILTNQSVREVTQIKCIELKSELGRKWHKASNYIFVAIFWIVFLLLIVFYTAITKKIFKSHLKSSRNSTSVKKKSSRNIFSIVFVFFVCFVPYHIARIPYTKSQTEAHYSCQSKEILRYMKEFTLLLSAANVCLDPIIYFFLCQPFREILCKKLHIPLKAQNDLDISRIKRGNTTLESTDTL
# [2] = system: simian (chimpanzee) P2RY14; assay: CellKey System live cell functional assay, simian P2RY14; type: cell-based; details: HEK cells expressing simian P2RY14 and Gqi5
# Procedure: (§1) The Cellkey System™ (MDS Sciex), a novel, live cell, label-free, real-time technology, was used to examine P2RY14 activation following agonist stimulation. The CellKey System™ is based on cellular dielectric spectroscopy (CDS) and monitors changes in impedance of the applied electrical current through the cell monolayer upon receptor activation.
# (§2) On the following day, growth medium was removed from the cell monolayer and replaced with 135 μl of HBSS pH 7.4 containing 20 mM Hepes for a 30 minutes pre-incubation period at room temperature. Baseline measurements were made for 5 minutes at 28° C. prior to ligand addition. For agonist assays, 15 μl of 10× agonist diluted in HBSS pH 7.4 containing 20 mM HEPES was added to the cell monolayer simultaneously using the 96 multichannel head from the CellKey™ System. Cellular response was monitored for 10 minutes to assess cellular response after ligand addition.
# P2RY14 [3] = biological target: T1, P2RY14; assay: FLIPR whole cell Ca2+ agonist assay, HEK cells expressing human P2RY14 and Gqi5; type: cell-based; parameters: expressed in transfected cells; details: for activation of P2RY14 (Ca2+ signaling): HEK cells expressing human P2RY14 and Gqi5, FLIPR
# Text: (§3) Stable HEK clonal cell lines expressing P2RY14 and the chimeric G protein Gqi5 were constructed. The chimeric Gqi5 forces the coupling of P2RY14 through the Gq (calcium) pathway and allows for monitoring of calcium signaling using a calcium binding fluorescent dye and a FLIPR (fluorometric imaging plate reader, MDS Sciex). Vector pCEP4 comprising the chimeric Gqi5 was obtained from Molecular Devices, Sunnyvale, Calif. (Cat. No. RD-PGQI5).
# The human P2RY14 was PCR amplified from the I.M.A.G.E. clone obtained from Invitrogen, Carlsbad, Calif. […] The codon encoding glutamate at position 54 in the wild-type human P2RY14 was changed to code for lysine. […] The PCR reaction was done in two parts. In the first part, the reaction was 5 cycles at 94° C. for 30 seconds, 65° C. for 30 seconds, and 72° C. for 90 seconds. In the second part, the reaction was 25 cycles at 94° C. for 30 seconds, 70° C. for 30 seconds, 72° C. for 90 seconds. The last cycle was followed by 7 minutes at 72° C. The PCR amplified human P2RY14 was digested with KpnI and NotI and cloned into a pcDNA3.1 (+) vector previously digested with KpnI and NotI to place the DNA fragment in the proper orientation downstream of the CMV promoter. The nucleic acid encoding the human P2RY14 was under the control of the CMV promoter.
# (§4) Cells were grown in DMEM medium containing 25 mM HEPES, pH 7.4 and 10% FBS, 50 units/ml penicillin/50 μg/ml streptomycin, 2 mM glutamine and 1 mM sodium pyruvate at 37° C. in humidified air containing 5% CO2. Two days post-transfection, cells were grown under selection in the DMEM medium as indicated above and supplemented with 200 μg/ml Hygromycin B and 250 μg/ml geneticin.
# (§5) Cells were incubated overnight at 37° C. and 5% CO2 to form a monolayer. On the following day, 30 μl of fluorescent no-wash dye was added to the cell monolayer and the plate was incubated for 60 minutes at 37° C., 5% CO2.
# (§6) For agonist assays, 6.12 μl of 10× agonist solution was added to the cell/dye incubation and Ca^2+ signaling was monitored by FLIPR. For antagonist assays, 250 nl of compound in 100% DMSO was added to cell/dye mixture; following a 20 minute incubation at room temperature, 6.12 μl of 10× agonist solution at EC80 in HBSS containing 20 mM Hepes was added to cells and Ca^2+ signaling was monitored by FLIPR. Quantitation of the % stimulation or inhibition of Ca^2+ signaling by agonist or antagonist, respectively, was calculated using the Max-Min fluorescent signal detected.
# [4] = system: simian (chimpanzee) P2RY14; assay: FLIPR whole cell Ca2+ agonist assay, HEK cells expressing simian (chimpanzee) P2RY14 and Gqi5; type: cell-based
# Text: as §3
# The simian (chimpanzee) P2RY14 nucleic acid fragment was synthesized based upon the Ensembl Gene ID ENSPTRG00000030093 by Bio S & T, Montreal, Quebec, Canada, to be flanked with KpnI and NotI restriction enzyme sites. […] The DNA fragment was digested with KpnI and NotI and then cloned into a pcDEF3 vector previously digested with KpnI and NotI to place the DNA fragment in the proper orientation downstream of the human EF-1a promoter. The nucleic acid encoding the simian P2RY14 was under the control of the human EF-1a promoter.
# as §4, §5, §6
# mouse P2RY14 [5] = biological target: T2, mouse P2RY14 (Mus musculus, UniProt Q9ESG6); assay: CellKey System live cell functional assay, mouse P2RY14; type: cell-based; details: HEK cells expressing mouse P2RY14 and Gqi5
# T2 construct: expressed in transfected cells
# T2 sequence (Q9ESG6 1-338): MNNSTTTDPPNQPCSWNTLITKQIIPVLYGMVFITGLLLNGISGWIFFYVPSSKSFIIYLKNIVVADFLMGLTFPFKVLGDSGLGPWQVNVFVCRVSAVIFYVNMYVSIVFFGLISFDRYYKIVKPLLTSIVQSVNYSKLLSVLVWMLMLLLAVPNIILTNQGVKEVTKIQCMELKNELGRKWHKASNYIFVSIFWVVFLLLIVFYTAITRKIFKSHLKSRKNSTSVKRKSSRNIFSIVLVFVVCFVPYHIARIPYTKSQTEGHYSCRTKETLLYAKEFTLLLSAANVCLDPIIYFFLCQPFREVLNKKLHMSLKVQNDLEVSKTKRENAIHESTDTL
# Procedure: as §1, §2
# mouse P2RY14 [6] = biological target: T2, mouse P2RY14; assay: FLIPR whole cell Ca2+ agonist assay, HEK cells expressing mouse P2RY14 and Gqi5; type: cell-based
# Text: as §3
# The nucleic acid encoding the mouse P2RY14 was under the control of the CMV promoter.
# as §4, §5, §6
# P2RY14 [7] = biological target: T1, P2RY14; assay: CellKey System live cell functional assay, human P2RY14; type: cell-based; parameters: expressed in transfected cells; details: HEK cells expressing human P2RY14 and Gqi5
# Procedure: as §1, §2
# [8] = system: HEK cells not expressing P2RY14; assay: FLIPR Ca2+ release in HEK cells not expressing P2RY14 (specificity); type: cell-based
# simian P2RY14 = assay: Membrane filtration binding assay, simian P2RY14; parameters: species or system chimpanzee; details: HEK cells expressing simian P2RY14, membrane filtration
# Procedure: Membrane preparations were made by N2 cavitation using a Parr unit. […] Cell were Dounce homogenized (size B, 10 strokes) and then added to the cavitation unit. Pressure was adjusted to 800 psi and cells were left under pressure for 30 minutes. Broken cells were released drop by drop and spun at 1000 g for 10 minutes. Supernatent was spun at 160,000 g (rotor type 60 Ti, 40000 rpm for 30 min). Pellet was resuspended in 10 mM HEPES/KOH pH 7.4, 1 mM EDTA in ⅕ the original volume, dounce homogenized (size A, 10 strokes), aliquoted, and frozen at −80° C.
# Binding assays were performed in 10 mM Hepes pH 7.4 (KOH), 5 mM MnCl2, 5 mM MgCl2 buffer. Membranes (10 μg/well for human P2RY14 and 30 μg/well for simian P2RY14) were incubated with 10 nM [5.6-^3H] Uridine 5′-triphosphate (UTP), ammonium salt from Amersham Biosciences (# TRK412) in presence of compounds diluted in DMSO (2% final in assay), in a total volume of 100 μl. 50 minutes (human P2RY14) or 60 minutes (simian) P2RY14) incubations were performed at room temperature with shaking. […] To examine the stability of [^3H]-UTP in the membrane filtration binding assay, 100 ul aliquots of the reaction mixture were extracted at 2, 10, 20, 40, 60 and 90 minutes with 100 uL of cold 80 mM EDTA solution (pH 8) and 200 uL of cold Acetonitrile. After mixing, proteins were precipitated by centrifugation at 13000 rpm for 10 minutes at 4° C. […] After 0.5 min at 10:90 50 mM KH2PO4/750 mM KH2PO4, a gradient was applied in order to increase to 100% 750 mM KH2PO4 at 5 min, after which this composition was maintained for an additional 3 min. Samples were kept at 4° C. prior to HPLC analysis
Compound,activation of P2RY14 (P2RY14 [1]),"P2RY14 signaling (impedance, CellKey) [2]",activation of P2RY14 (Ca2+ signaling) (P2RY14 [3]),activation of P2RY14 (Ca2+ signaling) [4],"P2RY14 signaling (impedance, CellKey) (mouse P2RY14 [5])",activation of P2RY14 (Ca2+ signaling) (mouse P2RY14 [6]),"P2RY14 signaling (impedance, CellKey) (P2RY14 [7])",Ca2+ response as compared to UDP-glucose and UMP (P2RY14 [3]; HEK cells expressing human P2RY14),Ca2+ release in cells not expressing P2RY14 [8],specific binding window as radioligand (simian P2RY14)
Nc1ncnc2c1ncn2[C@@H]1O[C@H](COP(=O)(O)OP(=O)(O)O[C@H]2O[C@H](CO)[C@@H](O)[C@H](O)[C@H]2O)[C@@H](O)[C@H]1O [ADP-glucose],unable to activate,–,–,–,–,–,–,–,–,–
CC(=O)N[C@H]1[C@@H](OP(=O)(O)OP(=O)(O)OC[C@H]2O[C@@H](n3ccc(=O)[nH]c3=O)[C@H](O)[C@@H]2O)O[C@H](CO)[C@@H](O)[C@@H]1O [UDP-N-acetylglucosamine],able to activate,mediated signaling,activated,activated,mediated signaling,activated,mediated signaling,–,–,–
O=C(O)[C@H]1O[C@H](OP(=O)(O)OP(=O)(O)OC[C@H]2O[C@@H](n3ccc(=O)[nH]c3=O)[C@H](O)[C@@H]2O)[C@H](O)[C@@H](O)[C@@H]1O [UDP-glucuronic acid],able to activate,mediated signaling,activated,activated,mediated signaling,activated,mediated signaling,–,–,–
"O=c1ccn([C@@H]2O[C@H](COP(=O)(O)OP(=O)(O)OP(=O)(O)O)[C@@H](O)[C@H]2O)c(=O)[nH]1 [UTP, Uridine 5′-triphosphate]",unable to activate,mediated signaling,activated,activated,mediated signaling,activated,mediated signaling,much larger Ca^2+ response,able to stimulate Ca^2+ release in a dose-dependent manner,–
O=P(O)(O)OP(=O)(O)OC[C@H]1O[C@@H](n2cnc3c(O)ncnc32)[C@H](O)[C@@H]1O [inosine diphosphate],–,–,activated,activated,–,activated,–,–,–,–
[^3H]-UMP,–,–,–,–,–,–,–,–,–,no specific binding window
